Values after ≈ are worked out from the molar mass of the structure shown.
Legend:
[1] = Drug dissolution test, rotating basket method, 0.2% SDS solution; format: physicochemical; conditions: 500 ml, 100 rpm
Method: Drug dissolution test was performed on the solid dispersion (rotating basket method, 0.2% SDS solution, 500 ml, 100 rpm). […] Under the same conditions, the drug dissolution of API (compound prepared in example 1) in 10 min, 30 min and 60 min were 7%, 13% and 22% respectively.

[2] = Equilibrium solubility test; format: physicochemical; conditions: 37 °C, thermodynamic from solid
Method: After 2 and 24 hours of high-speed centrifugation, the supernatant was taken, and the concentration of API in the supernatant was determined by high-performance liquid chromatography.

[3] = Pharmacokinetic test in mice (Effect Example 3); format: in vivo; conditions: mouse, plasma, po, male mice, single gavage
Method: Four groups of male mice were randomly divided into two groups: test article 1 (solid dispersion prepared in Example 7 and suspension prepared with reverse osmosis water as solvent), the dosages are 25 mg/kg and 100 mg/kg respectively; test article 2 (API prepared in example 1 and suspension prepared with aqueous solution containing 0.2% HPMC-E5), the dosages are 25 mg/kg and 100 mg/kg, respectively. The animals in each group were administered by single gavage.
All animals collected blood samples and separated plasma at 0.087 h, 0.25 h, 0.5 h, 1 h, 2 h, 4 h, 6 h, 8 h and 24 h after administration. All plasma samples were analyzed by LC-MS/Ms. the lower limit of quantification of the method was 10 ng/ml. The plasma concentration data were analyzed by non-compartmental model method (NCA) of metabolic kinetic data analysis software winnonlin8.0.0.3176, and the pharmacokinetic parameters were calculated to evaluate the kinetic characteristics of API in animals after administration.

[4] = Solubility in aqueous medium pH 1-7; format: physicochemical; conditions: aqueous buffer, thermodynamic from solid, 37° C. for 24 hours, acidic or neutral medium pH 1-7
From the text: The compound of formula (I) is usually in crystalline form and has very low solubility. […] Even after high humidity (60%) and long-term (12 months) storage, the compound of formula (1) in the solid dispersion of the invention will not be transformed or degraded.

drug dissolution ([1]; 10 min) | drug dissolution ([1]; 30 min) | drug dissolution ([1]; 60 min) | solubility at 2 h ([2]; FaSSIF) | solubility at 24 h ([2]; FaSSIF) | solubility at 2 h ([2]; FeSSIF) | solubility at 24 h ([2]; FeSSIF) | AUC(0-inf) ([3]; 25 mg/kg) | AUC(0-t) ([3]; 25 mg/kg) | Cmax ([3]; 25 mg/kg) | Tmax ([3]; 25 mg/kg) | half-life ([3]; 25 mg/kg) | AUC(0-inf) ([3]; 100 mg/kg) | AUC(0-t) ([3]; 100 mg/kg) | Cmax ([3]; 100 mg/kg) | Tmax ([3]; 100 mg/kg) | half-life ([3]; 100 mg/kg) | solubility at 24 h [4] | SMILES
7% | 13% | 22% | 1.3 µg/mL (≈ 1.47 µM) | 0.6 µg/mL (≈ 0.68 µM) | 2.5 µg/mL (≈ 2.83 µM) | 0.5 µg/mL (≈ 0.567 µM) | 637 ng·h/mL | 384 ng·h/mL | 82.2 ng/mL | 3.33 h | 7.41 h | 1120 ng·h/mL | 1100 ng·h/mL | 105 ng/mL | 1 h | 3.7 h | – | O=C(NS(=O)(=O)c1ccc(NC[C@H]2COCCO2)c([N+](=O)[O-])c1)c1ccc(N2CCN(CC3=C(c4ccc(Cl)cc4)CC4(CCC4)CC3)CC2)cc1Oc1cnc2[nH]ccc2c1 [API, 4-{4-{[6-(4-Chloro-phenyl)-spiro[3,5]nonane-6-ene-7-yl]methyl}-piperazine-1-yl}-N-{{3-nitro-4-[((2S)-[1,4]dioxane-2-ylmethyl)-amino]phenyl}sulfonyl}-2-(1H-pyrrolo[2,3-b]pyridin-5-yloxy)-benzamide]
– | – | – | – | – | – | – | – | – | – | – | – | – | – | – | – | – | 0.3 to 0.6 µg/mL | O=C(NS(=O)(=O)c1ccc(NC[C@H]2COCCO2)c([N+](=O)[O-])c1)c1ccc(N2CCN(CC3=C(c4ccc(Cl)cc4)CC4(CCC4)CC3)CC2)cc1Oc1cnc2[nH]ccc2c1 [compound of formula (I), 4-{4-{[6-(4-Chloro-phenyl)-spiro[3,5]nonane-6-ene-7-yl]methyl}-piperazine-1-yl}-N-{{3-nitro-4-[((2S)-[1,4]dioxane-2-ylmethyl)-amino]phenyl}sulfonyl}-2-(1H-pyrrolo[2,3-b]pyridin-5-yloxy)-benzamide]

From patent US12661324B2, “Solid dispersion, pharmaceutical preparations, preparation method, and application thereof” (ASCENTAGE PHARMA (SUZHOU) CO., LTD., priority 2020, dated 2026)
